Measurements from the CheMixHub viscosity set.

Experiment: xn = mol fraction of the nth substance listed

C1COCO1 + CCCO
303.15 K, 101 kPa
Conditions | viscosity [mPa·s]
x1 = 0.08269 | 1.258
x1 = 0.1686 | 1.067
x1 = 0.258 | 0.9345
x1 = 0.351 | 0.8208
x1 = 0.4479 | 0.7339
x1 = 0.5489 | 0.6454
x1 = 0.6543 | 0.592
x1 = 0.7644 | 0.5684
x1 = 0.8795 | 0.5564

CN(C)P(=O)(N(C)C)N(C)C + CCCO
303.15 K, 101.3 kPa
Conditions | viscosity [mPa·s]
x1 = 0.0989 | 1.896
x1 = 0.1996 | 1.991
x1 = 0.3022 | 2.102
x1 = 0.4027 | 2.217
x1 = 0.4525 | 2.272
x1 = 0.598 | 2.444
x1 = 0.6994 | 2.569
x1 = 0.7809 | 2.666
x1 = 0.8672 | 2.766

CCCOCC(C)O (centres undefined) + CCN(CC)CC
viscosity [mPa·s], 100 kPa
Conditions | 298.15 K | 303.15 K | 308.15 K
x1 = 0.0502 | 0.4177 | 0.3933 | 0.3699
x1 = 0.1001 | 0.4846 | 0.4496 | 0.4206
x1 = 0.1501 | 0.5523 | 0.5096 | 0.476
x1 = 0.2016 | 0.6258 | 0.5726 | 0.5332
x1 = 0.3 | 0.7805 | 0.7042 | 0.6523
x1 = 0.4 | 0.9537 | 0.8515 | 0.7863
x1 = 0.5 | 1.153 | 1.017 | 0.9326
x1 = 0.5998 | 1.382 | 1.207 | 1.102
x1 = 0.6999 | 1.625 | 1.406 | 1.281
x1 = 0.7996 | 1.887 | 1.629 | 1.474
x1 = 0.8998 | 2.169 | 1.87 | 1.682
x1 = 0.9499 | 2.304 | 1.973 | 1.775

CCCOCC(C)O (centres undefined) + CCNCC
viscosity [mPa·s], 100 kPa
Conditions | 298.15 K | 303.15 K | 308.15 K
x1 = 0.0509 | 0.3488 | 0.3318 | 0.3107
x1 = 0.1002 | 0.3949 | 0.3733 | 0.3489
x1 = 0.1505 | 0.4552 | 0.4261 | 0.4014
x1 = 0.2 | 0.519 | 0.4819 | 0.4542
x1 = 0.3003 | 0.6838 | 0.6321 | 0.5992
x1 = 0.4 | 0.8976 | 0.8055 | 0.7606
x1 = 0.5002 | 1.171 | 1.034 | 0.9506
x1 = 0.5999 | 1.436 | 1.264 | 1.15
x1 = 0.7 | 1.742 | 1.514 | 1.365
x1 = 0.7982 | 2.014 | 1.738 | 1.562
x1 = 0.9 | 2.265 | 1.94 | 1.739
x1 = 0.9496 | 2.361 | 2.021 | 1.814

C1COCO1 + CCO
303.15 K, 101 kPa
Conditions | viscosity [mPa·s]
x1 = 0.06463 | 0.898
x1 = 0.1346 | 0.838
x1 = 0.2104 | 0.7691
x1 = 0.2931 | 0.6852
x1 = 0.3834 | 0.6333
x1 = 0.4826 | 0.6121
x1 = 0.592 | 0.591
x1 = 0.7133 | 0.5886
x1 = 0.8484 | 0.569
